Residues, ends and D or L forms follow the SMILES beside them. *: point of attachment. Cbz = O=C(OCc1ccccc1)*
Assays:
[1] = system: HEYT30 cells; experiment: Paclitaxel cell viability with BMP9 in HEYT30 (FIG. 10, 13A); type: cell-based; details: Homo sapiens, read-out: paclitaxel IC50 concentration
[2] = system: HEY-T30 cells; experiment: Flow cytometry, Annexin V / PI apoptosis; type: cell-based, human; details: 3D, 48 hours; 10 nM BMP9, 300 nM paclitaxel or combination
Method: 700,000 cells were seeded in 60 mm poly-hema coated culture dishes, followed by incubation with 300 nM paclitaxel and 10 nM BMP9 alone or in simultaneous combination for 48 hours. Cells were centrifuged and resuspended in 1×binding buffer, followed by incubation with Annexin V and PI according to the manufacturer's procedure manual. The stained cell suspension was added to FACS tubes containing 200 μl 1×binding buffer and measured by BD LSRFortessa flow cytometer. The data were analyzed using BD FACSDiva (Becton Dickinson, NJ, USA) software. Annexin V-positive and PI-negative cells were considered to be in the early apoptotic phase, Annexin V-negative and PI-positive cells were considered to be in the necrosis phase, cells having positive staining for both Annexin-V and PI were considered to undergo late apoptosis and cells negative for Annexin V and PI were considered to be live cells.

[3] = system: HEYT30 cells; experiment: CellTiter Glo 3D cell viability assay, paclitaxel with BMP9; details: read-out: paclitaxel IC50 concentration, 3D conditions
[4] = system: Phosphorylated SMAD1 (pSMAD1); experiment: SMAD1 phosphorylation (Western blot); type: cell-based, human
[5] = system: SOX2; experiment: SOX2 expression by Western blot / qRT-PCR in cancer cells; type: cell-based, human; details: for effect on SOX2 repression by BMP9: 1 h pretreatment (5 μM SB431542, 3 μM ML347, 0.8 μM LDN193189), then BMP9 24 hours; for recovery in SOX2 repression by BMP2: PA1, 1 h pretreatment (5 μM DM, 3 μM ML347); for recovery in SOX2 repression by BMP2 / effect on SOX2 repression by BMP2: then BMP2 24 h; for SOX2 protein and mRNA expression: attached and anchorage-independent conditions; for effect on SOX2 repression by BMP2: PA1, 1 h pretreatment (5 μM SB431542, 0.8 μM LDN193189); for SOX2 protein and RNA levels: 10 nM, 24 hours, PA1 (and OVCAR3) cells
Method: Lysate and RNA preparation: 100,000-300,000 cells were seeded in a poly-HEMA coated 6-well plate for indicated times in full serum unless indicated otherwise. Cells were collected by centrifugation and lysed with trizol for RNA extraction or direct 2× lysis buffer for protein lysates.
Xenograft data were analyzed using parametric statistics as described in the legends. Survival curves were analyzed with log-rank statistics. In vitro experiments were analyzed using parametric statistics (ANOVA global test with Dunnett's/Sidak multiple comparison test as post-hoc tests as applicable and described in legend) and presented as the mean±SEM. All real time PCR's are relative semi quantitative RT-PCR's (hereby referred to as qRT-PCR) and are a combined quantitation of a minimum of 3 independent biological trials assayed in triplicate with biological replicates represented as individual scatter dots in the graphs or as indicated in legends. In all cases, statistical significance was set at a threshold of p<0.05. All statistical analyses were conducted with GraphPad Prism Software Ver. 9.0 and specific statistical test information described in figure legends.

[6] = system: SOX2 promoter; experiment: Chromatin immunoprecipitation (ChIP) at SOX2 promoter regions; type: cell-based, human; details: for SMAD3 occupancy at p1, p3, p4, p5, p6 (ChIP): 1 h treatment
Method: ChIP was carried out using a modified version of a previously described protocol (Medeiros et al., 2009). Cells were grown to 80% confluency in 150 mm culture dishes. Cells were fixed at room temperature in 1% Paraformaldehyde solution (dilute 8% PFA in serum free media to get 1%) and rocked for 10 minutes. 10×Glycine was added to the plate and allowed to sit for 5 minutes at room temperature. Cells were scraped down and cell suspension were transferred to a cold centrifuge tube for centrifugation at 720 RCF at 4° C. for 10 minutes. Cells were rinsed with 1X Phosphate buffer saline and centrifugation repeated. Cell pellet was next resuspended in lysis buffers described in (Medeiros et al., 2009) to obtain nuclei pellet. This was followed by chromatin sonication, using QSonica sonicator (model CL-188) for four cycles (30% amplitude for 15 secs ON and 30 secs OFF) to obtain DNA fragments with a length from 150 to 300 bp. 1/10th of the supernatant was stored as input control. ChIP was performed using Protein A magnetic beads (Dynabeads, Invitrogen #10001D) to couple […] ChIP-grade antibodies for SMAD1, SMAD3, H3K27me3, H3K4me3, or rabbit IgG antibody overnight at 4 °C. DNA was purified using the PureLink Quick PCR Purification kit (Thermo Fisher Cat #: K310001) and enrichment of DNA fragments analyzed via relative quantitative RT-PCR (qPCR) using ChIP primers (see Table 2) to specific locations. Negative and positive control regions were included in all analysis.

[7] = system: 1-kb SOX2 promoter reporter; experiment: pGL3-SOX2 promoter-reporter luciferase assay in HEK293 cells; type: cell-based, human
Method: HEK293 cells were transfected with the pGL3-SOX2 promoter-luciferase reporter plasmid construct and SV40-renilla for 24h. […] According to the manufacturer's instruction, cells were collected and lysed in […] passive lysis buffer. To measure luciferase activity, […] of lysate was added to […] of dual Luciferase Assay Reagent, and luminescence was quantitated using a luminometer (Biotek).

[8] = system: OC cells (PA1, OVCA420, and OVCAR3); experiment: Live-dead analysis of anchorage-independent spheroids, TGF-β1/activin A; type: cell-based, human; details: 1 nM TGFβ1, 10 nM activin, 24 hrs
Method: (§1) For Live/Dead analysis under anchorage independence, 1,000 cells were seeded in 96-well hydrogel-coated ultra-low attachment (ULA) plates (Corning #4515) for times indicated. Growth factor treatment was done under low serum 2.5% FBS condition (Cells were plated in 10% FBS to allow spheroid formation before beginning treatment). Cells were then stained with 2 μM Calcein-AM and 4 μM Ethidium-homodimer for 30 min before imaging. z-stacked images were obtained using the Zeiss LSM700 Confocal microscope (Microscopy and Flow Cytometry Core, University of South Carolina) and NIKON A1 Confocal microscope (UAB High Resolution Imaging Facility). Fluorescent quantification was performed using ImageJ Fiji software to calculate the Corrected Total Cell Fluorescent (CTCF)=Integrated Density−(Area of selected cell×Mean fluorescence of background readings) per spheroid.

[9] = system: SOX2 promoter methylation; experiment: Methylation-specific qPCR of SOX2 promoter; type: cell-based, human; details: for SOX2 promoter methylation, inhibitor alone: 5 μM
Method: Genomic DNA was extracted, and bisulfite conversion was performed on 500 ng of gDNA using the MethylAmp DNA modification kit according to manufacturer's instructions. Relative quantitative RT-PCR (qPCR) was performed with methylation-specific and unmethylation-specific primers (see Table 3).

[10] = system: PA1 cells; experiment: Live/Dead analysis under anchorage independence (anoikis), PA1 cells; type: cell-based, human; details: 10 nM for 24 hrs after 48 hours anchorage independence
Method: as §1

## CC(=O)O[C@H]1C(=O)[C@@]2(C)[C@H]([C@H](OC(=O)c3ccccc3)[C@]3(O)C[C@H](OC(=O)[C@H](O)[C@@H](NC(=O)c4ccccc4)c4ccccc4)C(C)=C1C3(C)C)[C@]1(OC(C)=O)CO[C@@H]1C[C@@H]2O [paclitaxel]
[1]; 24-hour pretreatment 1 nM BMP9, then combination 48 hours
  IC50: 90.8 nM
[1]; 24-hour pretreatment 5 nM BMP9, then combination 48 hours
  IC50: 22.6 nM
[1]; 24-hour pretreatment 10 nM BMP9, then combination 48 hours
  IC50: 4.1 nM
[1]; 48 h, simultaneous 1 nM BMP9, 48 hours
  IC50: 91.7 nM
[1]; 48 h, simultaneous 5 nM BMP9, 48 hours
  IC50: 89 nM
[1]; 48 h, simultaneous 10 nM BMP9, 48 hours
  IC50: 73 nM
[1]; 48 h, untreated control (no BMP9), simultaneous series, 48 hours
  IC50: 107 nM
[1]; untreated control (no BMP9), 24-hour pretreatment series
  IC50: 113 nM
[2]
  apoptosis in cells: 12.8%
[3]; 24-hour pretreatment 5 nM BMP9
  IC50: 286 nM
[3]; 24-hour pretreatment 10 nM BMP9
  IC50: 211 nM

## COc1ccc(-c2cnc3c(-c4cccc5ncccc45)cnn3c2)cc1 [ML347]
[4]; 3 μM ML347
  BMP9-induced phosphorylation of SMAD1: completely suppressed
  suppression of BMP2-induced SMAD1 phosphorylation: 40%
[5]; 3 μM ML347, PA1
  baseline SOX2 levels in the absence of exogenous ligand: increased
[5]
  effect on SOX2 repression by BMP9: abrogated
  recovery in SOX2 repression by BMP2: 72%

## CC(C)C[C@@H](C=O)NC(=O)[C@H](CC(C)C)NC(=O)[C@H](CC(C)C)NC(=O)OCc1ccccc1 [MG132] (Cbz-Leu-Leu-Leu-aldehyde)
[5]; PA1, 0.5 μM MG132 1 hour, then rhBMP2/9
  effect on BMP's ability to repress SOX2: No effect

## c1cc(-c2cnn3cc(-c4ccc(OCCN5CCCCC5)cc4)cnc23)ccn1 [DM, Dorsomorphin]
[5]; PA1, 5 μM pretreatment 1 h, then rhBMP9 24 hours
  recovery in SOX2 levels in the presence of BMP9: 34.3%
[5]
  recovery in SOX2 repression by BMP2: 23%

## TGF-β1: transforming growth factor β1 ligand
[6]
  SMAD3 occupancy at p1, p3, p4, p5, p6 (ChIP): consistent SMAD3 enrichment
[6]; PA1, 1-h TGF-β1
  H3K4me3 at SMAD3 motifs p1, p3, p4, p5, p6 (ChIP): enrichment
[7]; TGF-β1 400 pM, 24 h
  luciferase activity of SOX2 promoter reporter: increased
[5]
  SOX2 protein and mRNA expression: increased
[8]
  live/dead ratio of spheroids: increased

## c1ccc2c(-c3cnn4cc(-c5ccc(N6CCNCC6)cc5)cnc34)ccnc2c1 [LDN193189]
[6]; PA1, rhBMP9 + LDN193189
  BMP9-induced H3K27me3 occupancy on the SOX2 promoter (ChIP): significantly reduced
[4]; 0.8 μM LDN193189, PA1 and OVCAR3
  BMP2- and BMP9-induced SMAD1/5 phosphorylation: Full inhibition
[5]; 0.8 μM LDN193189, PA1
  increase of SOX2 protein levels at baseline in the absence of exogenous ligand: 33
[5]
  effect on SOX2 repression by BMP9: blocked
  effect on SOX2 repression by BMP2: blocked

## NC(=O)c1ccc(-c2nc(-c3ccc4c(c3)OCO4)c(-c3ccccn3)[nH]2)cc1 [SB431542]
[6]; PA1, TGF-β1 + SB431542
  TGF-β1-induced H3K4me3 enrichment (ChIP): abrogated
[4]; 5 μM inhibitor
  pSMAD1 in response to BMP2 and -9: no effects
[5]; 5 μM SB431542 1 h, then 400 pM TGF-β1 24 h
  TGF-β1-induced SOX2 increases: suppressed
[5]
  effect on SOX2 repression by BMP9: did not significantly alter
  effect on SOX2 repression by BMP2: did not alter

## CC[C@H](C)n1cc(C)c2c(C(=O)NCc3c(C)cc(C)[nH]c3=O)cc(-c3ccc(N4CCNCC4)nc3)cc21 [GSK126]
[5]; 5 μM GSK126, multiple cell lines
  SOX2 repression by BMP9: abrogated

## Nc1ncn([C@@H]2O[C@H](CO)[C@@H](O)[C@H]2O)c(=O)n1 [50-Aza, 50-azacytidine]
[9]; PA1, 5 μM 48 h pretreatment, then rhBMP9 24 h
  BMP9-induced SOX2 promoter methylation: abrogated
[9]; PA1 cells
  SOX2 promoter methylation, inhibitor alone: minimal effect
[9]; SKOV3 cells, 48 hours
  SOX2 promoter methylation, inhibitor alone: suppressed SOX2 promoter methylation significantly
[5]; PA1, 5 μM with 10 nM rhBMP9
  SOX2 mRNA downregulation by BMP9: suppressed
[5]; SKOV3 cells, 5 μM
  SOX2 mRNA, inhibitor alone: concomitant increase
[5]; SKOV3 cells, 5 μM with 10 nM rhBMP9
  BMP9-induced SOX2 transcriptional repression: repressed

## activin A: activin A, TGF-β family member
[6]
  SMAD3 occupancy at p1, p3, p4, p5, p6 (ChIP): occupied by SMAD3
[7]; 10 nM activin A, 24 hours
  luciferase activity of SOX2 promoter reporter: increased
[5]
  SOX2 protein and mRNA expression: increased

B1: BMP10: recombinant human BMP10, highest sequence homology to BMP9 (protein, UniProt O95393 317-424, looked up)
Bone morphogenetic protein 10: NAKGNYCKRTPLYIDFKEIGWDSWIIAPPGYEAYECRGVCNYPLAEHLTPTKHAIIQALVHLKNSQKASKACCVPTKLEPISILYLDKGVVTYKFKYEGMAVSECGCR
[4]
  activation of SMAD1/5: failed to activate
[5]
  SOX2 protein and RNA levels: did not alter
[10]
  anoikis: did not alter

B2: BMP4: recombinant human BMP4, BMP ligand (protein, UniProt P12644 293-408, looked up)
Bone morphogenetic protein 4: SPKHHSQRARKKNKNCRRHSLYVDFSDVGWNDWIVAPPGYQAFYCHGDCPFPLADHLNSTNHAIVQTLVNSVNSSIPKACCVPTELSAISMLYLDEYDKVVLKNYQEMVVEGCGCR
[5]
  SOX2 protein and RNA levels: downregulation
[10]
  decrease of live-to-dead cell ratio: 1.93

Source: patent US20240408175A1, “BMP9 OR AN AGONIST THEREOF AND ITS USES RELATED TO REDUCING METASTASIS OF CANCER” (THE UAB RESEARCH FOUNDATION, priority 2021, published 2024)
